Consider four molecules from ChEMBL document CHEMBL1201862, “PubChem BioAssay data set” (2004).

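Growth conditions: 96-well plates. Treatment: test compound, 48 hours, 5 concentrations. Analysis: linear interpolation between bracketing concentrations; unreached endpoints set to highest concentration. GI50 marks 50% less growth.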 Active and inactive are the calls of the source. No stated cut-off is given here; in the data, active = GI50 up to about 1.1 µM and inactive = higher. Some results are limits rather than exact numbers.

Among the test systems are NCI-H522; MOLT-4; A549; CAKI-1; OVCAR-8; SK-OV-3; MDA-MB-435; CCRF-CEM; SF-295; HT-29; 786-0; ACHN; Malme-3M; HCT-116; EKVX; LOX IMVI; HOP-92; MCF7; A498; KM12.
What all share (experiment): NCI tumour cell line growth inhibition, 48 h

`Clc1nc(Cl)c(CBr)c(Cl)n1`: the GI50 in the experiment on NCI-H522 was 1.5 µM (inactive); with MOLT-4 it was 1.45 µM (inactive); in the experiment with A549 it was 16 µM (inactive); in the experiment on CAKI-1, 10.9 µM (inactive); in the experiment on OVCAR-8, 3.27 µM (inactive); in the experiment on SK-OV-3, 15.2 µM (inactive). Also, the GI50 with MDA-MB-435 was 5.05 µM (inactive); in the experiment on CCRF-CEM, 0.427 µM (active); in the experiment on SF-295 it was 6.11 µM (inactive); in the experiment on HT-29, 4.29 µM (inactive); with 786-0, 2.24 µM (inactive); in the experiment on ACHN it was 4.84 µM (inactive). Also, the GI50 is 4.16 µM (inactive) in the experiment with Malme-3M; 2.48 µM (inactive) in the experiment with HCT-116; 22.1 µM (inactive) with EKVX; 1.83 µM (inactive) in the experiment on LOX IMVI; 2.28 µM (inactive) in the experiment on HOP-92; 5.37 µM (inactive) in the experiment on MCF7. Moreover, the GI50 in the experiment with A498 is 18.1 µM (inactive); with KM12, 2.71 µM (inactive).
With `CCNCCCNc1c2ccccc2nc2ccccc12`, the GI50 with NCI-H522 was 0.183 µM (active); in the experiment on MOLT-4, 0.313 µM (active); in the experiment on A549 it was 0.64 µM (active); in the experiment on CAKI-1, 0.334 µM (active); in the experiment with OVCAR-8, 0.349 µM (active); in the experiment on SK-OV-3 it was 1.33 µM (inactive). Moreover, the GI50 in the experiment with MDA-MB-435 is 0.479 µM (active); in the experiment on CCRF-CEM it was 0.514 µM (active); in the experiment on SF-295 it was 0.498 µM (active); in the experiment on HT-29, 0.219 µM (active); with 786-0, 0.552 µM (active); with ACHN, 0.136 µM (active). Besides, the GI50 was 0.406 µM (active) in the experiment with Malme-3M; 0.365 µM (active) with HCT-116; 0.569 µM (active) in the experiment with EKVX; 0.251 µM (active) with LOX IMVI; 0.469 µM (active) in the experiment on HOP-92; 0.193 µM (active) in the experiment on MCF7. For the same molecule, the GI50 in the experiment on A498 was 0.631 µM (active); with KM12 it was 0.396 µM (active).
In the case of `O=C1NC(c2c(Cl)cccc2Cl)Nc2ccccc21` (stereo not given), the GI50 in the experiment with NCI-H522 was 25.9 µM (inactive); in the experiment on MOLT-4 it was 47.6 µM (inactive); in the experiment with A549 it was 54.6 µM (inactive); in the experiment on CAKI-1 it was 18.5 µM (inactive); in the experiment on OVCAR-8, 47.1 µM (inactive); with SK-OV-3, > 100 µM (inactive). Besides, the GI50 is 14.1 µM (inactive) in the experiment with MDA-MB-435; > 10 µM (inactive) in the experiment on CCRF-CEM; 47.3 µM (inactive) with SF-295; 28.1 µM (inactive) in the experiment with HT-29; 54.3 µM (inactive) with 786-0; > 100 µM (inactive) with ACHN. For the same molecule, the GI50 in the experiment with Malme-3M was 24.8 µM (inactive); with HCT-116 it was 25.4 µM (inactive); in the experiment with EKVX it was 56 µM (inactive); with LOX IMVI, 47.2 µM (inactive); with HOP-92, 25.4 µM (inactive); in the experiment with MCF7 it was 47.3 µM (inactive). Further, the GI50 was 85.7 µM (inactive) in the experiment with A498 and 16.4 µM (inactive) with KM12.
Consider `O=C1C=Cc2cscc21`, for which the GI50 is 19.6 µM (inactive) in the experiment with NCI-H522; 14.3 µM (inactive) in the experiment on MOLT-4; 62.7 µM (inactive) with A549; 27.4 µM (inactive) in the experiment with CAKI-1; 32.6 µM (inactive) in the experiment with OVCAR-8; > 100 µM (inactive) in the experiment with SK-OV-3. The GI50 with MDA-MB-435 was 48.5 µM (inactive); in the experiment on CCRF-CEM it was 22.6 µM (inactive); in the experiment on SF-295, 49.4 µM (inactive); in the experiment on HT-29 it was 35.5 µM (inactive); in the experiment with 786-0 it was 16.4 µM (inactive); with ACHN, 34.5 µM (inactive). In addition, the GI50 in the experiment with Malme-3M is 27 µM (inactive); in the experiment with HCT-116 it was 15.3 µM (inactive); with EKVX, 46.5 µM (inactive); in the experiment on LOX IMVI, 35.8 µM (inactive); with HOP-92 it was > 100 µM (inactive); with MCF7, 15.3 µM (inactive). The GI50 is > 100 µM (inactive) in the experiment on A498 and 71.4 µM (inactive) in the experiment with KM12.
